Results: patent US6761123B2, “INFUSION OF COMBUSTION GASES INTO BALLAST WATER PREFERABLY UNDER LESS THAN ATMOSPHERIC PRESSURE TO SYNERGISTICALLY KILL HARMFUL AQUATIC NUISANCE SPECIES BY SIMULTANEOUS HYPERCAPNIA, HYPOXIA AND ACIDIC PH LEVEL” (MH Systems, priority 2001, dated 2004)

Key:
[1] = tested on: plankton sample (mainly copepods); test: Incubation of plankton sample (mainly copepods) in gas-equilibrated seawater; format: in vivo
Source text: (§1) The purpose of the experiments described here was to obtain data on the effects of “inert gas” on marine organisms. “Inert gas” of a mixture hereinafter called trimix—a commercially available gas mixture of […], 12% CO2 and 84% nitrogen resembling the gas generated by commercially used marine “inert gas generators”—was used. Both adult and young adult marine organisms were chosen for two reasons: a) to make the size of specimens amenable for the experimental setup and b) to raise the significance of possible effects since adults of a species are typically more tolerant of environmental changes than juveniles or larvae. All marine organisms were collected fresh from the coastal waters off La Jolla, Calif. and used immediately. They are, in that particular environment, not necessarily nuisance organisms. Some of the organisms might be so considered, however, should they be introduced into other waters. […]
(§2) The schematic of an experimental setup in validation of the principles and methods of the present invention (and also, a miniature scale, the gaseous exchange system) is shown in FIG. 1. […] The oxygen concentrations were measured after the initial bubbling period using a Strathkelvin oxygen electrode with a Cameron instruments OM-200 oxygen analyzer. Values of pH were determined using a combination electrode and a Radiometer pH meter. […]

brittle stars = test: Incubation of brittle stars in gas-equilibrated seawater, survival by motile response; format: in vivo; settings: transfer to aerobic conditions
Source text: as §1, §2

[2] = Oxygen concentration and pH of seawater bubbled with the gas; format: physicochemical
Procedure: The schematic of an experimental setup in validation of the principles and methods of the present invention (and also, a miniature scale, the gaseous exchange system) is shown in FIG. 1. Three parallel incubations were done for each experiment. Several organisms were incubated in 1.5 l of seawater at 22° C. in large Erlenmeyer flasks. Each incubation was equilibrated with the respective gas using aquarium stones before any organisms were introduced. The aerobic control was bubbled from an aquarium pump for approximately 15 min and left open to the atmosphere after addition of specimens. An anaerobic incubation was bubbled with 99.998% nitrogen for 15 min. After introduction of the organisms, the bubbling was continued for another 10 min and then the container was closed with a rubber stopper or the bubbling was continued. The incubation in […] treated similarly except that the gas mix was used instead of nitrogen. The oxygen concentrations were measured after the initial bubbling period using a Strathkelvin oxygen electrode with a Cameron instruments OM-200 oxygen analyzer. Values of pH were determined using a combination electrode and a Radiometer pH meter.

barnacles = test: Incubation of barnacles in gas-equilibrated seawater, survival by withdrawal of feet when disturbed; format: in vivo; settings: 1.5 l seawater, 22° C., equilibrated with gas
Source text: as §1, §2

mussels = test: Incubation of mussels in gas-equilibrated seawater, survival by shell closing on tactile stimulus; format: in vivo; settings: after 95 min incubation
Source text: as §1, §2

Structure (SMILES): N#N [nitrogen]
- time after which plankton (mainly copepods) stopped moving ([1]; 1.5 l seawater, 22° C., equilibrated with gas): 15 min
- revival of plankton (mainly copepods) ([1]; after they stopped moving): could not be revived
- movement of brittle stars after transfer into aerated water (brittle stars): started to move again
- oxygen concentration of the incubation ([2]; measured after the initial bubbling period, oxygen electrode): non-detectable
- pH value of the seawater bubbled with the gas ([2]; seawater, normal pH 8, trimix value after initial 10 min of vigorous bubbling): 8
- state of barnacles after incubation (withdrawal of feet when disturbed) (barnacles): still behaved normally
- response of mussels to tactile stimuli (closing shells) (mussels): still responded to tactile stimuli by closing their shells
- state of mussel shells (mussels): open
